# According to patent US8476289B2, “Aza-bicyclohexyl substituted indolyl alkyl amino derivatives as novel inhibitors of histone deacetylace” (Janssen Pharmaceutica NV, priority 2008, dated 2013):
# Where a name gives a salt, the structure may show the parent alone.
# Experiments:
# [1] = molecular target: histone deacetylase (HeLa nuclear extracts); assay: In vitro assay for inhibition of histone deacetylase (example C.1.c, HeLa nuclear extracts); format: biochemical; conditions: HeLa nuclear extract, 45 min at 37° C.; work performed by Reaction Biology Corp.
# Description: The in vitro assay for inhibition of histone deacetylase (see example C.1) measures the inhibition of HDAC enzymatic activity obtained with the compounds of formula (I).
# HeLa nuclear extracts (prepared by high salt extraction of HeLa nuclei, J. D. Dignam et al., S. M. Abmayr et al) were incubated with 9 mg/ml in 0.1M KCl, 20 mM HEPES/NaOH, pH 7.9, 20% (v/v) glycerol, 0.2 mM EDTA, 0.5 mM DTT, 0.5 mM PMSF of enzyme. After 45 min, at 37° C. the deacetylation reaction was terminated. The developer reaction (also at 37° C.) was read in a time dependent manner for an hour. For each experiment, controls (containing HeLa nuclear extract and DMSO without compound) and samples (containing compound dissolved in DMSO and HeLa nuclear extract) were run in parallel. The compounds were tested at concentrations between 10^−5M and 10^−12M. The control sample represented 100% of substrate deactylation. For each sample the activity was expressed as a percentage of the mean value of the controls. Appropriate IC50-values (concentration of the drug, needed to reduce the amount of metabolites to 50% of the control) were computed using the Prism program. Herein the effects of test compounds are expressed as pIC50 (the negative log value of the IC50-value) (see Table F-2). Work was performed by Reaction Biology Corp. (Malvern, Pa., USA).
# HCT116 cells = assay: Antiproliferative activity on HCT116 cells (Alamar Blue assay, example C.2); format: cell-based; conditions: HCT-116, 96 h, Human colon carcinoma HCT116 cells, 4-day incubation, read-out: Cellular activity pIC50 C.2 (converted)
# Description: Cellular activity of the compounds of formula (I) was determined on HCT116 tumour cells using a colorimetric assay for cell toxicity or survival (Mosmann Tim, Journal of Immunological Methods 65: 55-63, 1983) (see example C.2).
# Human colon carcinoma HCT116 cells obtained from the ATCC were cultured in McCoy's 5A medium supplemented with 2 mM L-Glutamine, 50 μg/ml gentamicin and 10% heat inactivated fetal calf serum.
# Reagents Used in the Alamar Blue Assay
# Resazurin was purchased from Aldrich (Prod. No. 199303). Potassium ferrocyanide, potassium ferricyanide, KH2PO4 and K2HPO4 were purchased from Sigma (Prod. Nos. P9387, P8131, P5655 and P8281, respectively).
# Potassium Phosphate Buffer 0.1 M (PPB) was made as follows: 2.72 gram KH2PO4 and 13.86 gram K2HPO4 were dissolved in 500 ml milli-Q H2O, the pH was adjusted to pH 7.4 and the volume was brought to 1 liter with milli-Q H2O; the buffer was filter sterilised and stored at room temperature. Resazurin stock solution (PPB-A) was prepared fresh by dissolving 45 mg resazurin in 15 ml PBS. 30 mM potassium ferricyanide (PPB-B) was prepared by dissolving 0.987 gram potassium ferricyanide in 100 ml PPB. 30 mM potassium ferrocyanide (PPB-C) was prepared by dissolving 1.266 gram potassium ferrocyanide in 100 ml PPB.
# Mixture of PPB-A, PPB-B and PPB-C was prepared by mixing equal volumes of the respective solutions. Resazurin work solution (herein termed “Alamar Blue” solution) was prepared by diluting said mixture 20× (vol/vol) in PPB and filter sterilising; the Alamar Blue solution could be kept at 4° C. for a maximum of 2 weeks.
# Procedure of the Alamar Blue Assay
# For experiments in 384 wells plates the cells were seeded at a density of 4.5×10^3 cells/ml in Falcon 384-well culture plates (Life Technologies, Merelbeke, Belgium), black with clear bottom, in 45 μl culture medium. Cells were allowed to adhere to plastic for 24 hr. The tested compound was pre-diluted (1/50 in culture medium) and 5 μl pre-diluted compound was added to the wells. Following 4-day incubation, 10 μl of the Alamar Blue solution was added to each well and the cells were further incubated for 4 hrs (HCT116) or 24 hrs (PC-3) at 37° C. The fluorescence intensity was measured for each well on a Fluorescence plate reader (Fluorskan, Labsystems, 540 nm excitation and 590 nm emission)
# The antiproliferative activity was calculated as percentage of remaining viable cells in treated versus control (untreated cells) conditions. Within an experiment, the result for each experimental condition is the mean of 3 replicate wells. When appropriate, the experiments were repeated to establish full concentration-response curves. When appropriate, IC50-values (concentration of the drug, needed to reduce cell growth to 50% of the control) were computed using probit analysis for graded data (Finney, D. J., Probit Analyses, 2nd Ed. Chapter 10, Graded Responses, Cambridge University Press, Cambridge 1962). Herein the effects of test compounds are expressed as pIC50 (the negative log value of the IC50-value) (see Table F-2).
melting point [°C],Enzymatic activity pIC50 C.1.c. [1],IC50 (HCT116 cells) [nM],SMILES
157,–,–,Cn1cc(CNC2C3CN(c4ncc(C(=O)NO)cn4)CC32)c2ccccc21 (centres unmarked) (as salt: trifluoroacetate) [Compound 2]
–,8.39,89.1,Cn1cc(CNCC2C3CN(c4ncc(C(=O)NO)cn4)CC23)c2ccccc21 (centres unmarked) [Compound 1]
–,8.62,661,Cn1cc(CNC2C3CN(c4ncc(C(=O)NO)cn4)CC32)c2ccccc21 (centres unmarked) [Compound 2]

# The next lines start with the compound.
SMILES,melting point [°C],Enzymatic activity pIC50 C.1.c. [1],IC50 (HCT116 cells) [nM]
Cn1cc(CNCC2C3CN(c4ncc(C(=O)NO)cn4)CC23)c2ccccc21 (centres unmarked) (as salt: trifluoroacetate) [Compound 1],150,–,–
Cn1cc(CNCC2C3CN(c4ncc(C(=O)NO)cn4)CC23)c2cc(Cl)ccc21 (centres unmarked) [Compound 3],–,–,75.9
Cn1cc(CNCC2C3CN(c4ncc(C(=O)NO)cn4)CC23)c2cc(F)ccc21 (centres unmarked) [Compound 4],–,–,81.3
Cn1cc(CNCC2C3CN(c4ncc(C(=O)NO)cn4)CC23)c2cc(C#N)ccc21 (centres unmarked) [Compound 5],–,–,398
CCCn1cc(CNCC2C3CN(c4ncc(C(=O)NO)cn4)CC23)c2cc(Cl)ccc21 (centres unmarked) [Compound 6],–,–,35.5
CCCn1cc(CNCC2C3CN(c4ncc(C(=O)NO)cn4)CC23)c2cc(F)ccc21 (centres unmarked) [Compound 7],–,–,25.7
